In this experiment the target is T1, C5AR1 (Homo sapiens, UniProt P21730).
T1 construct: host or cells: CHO-K1
T1 sequence (P21730 1-350): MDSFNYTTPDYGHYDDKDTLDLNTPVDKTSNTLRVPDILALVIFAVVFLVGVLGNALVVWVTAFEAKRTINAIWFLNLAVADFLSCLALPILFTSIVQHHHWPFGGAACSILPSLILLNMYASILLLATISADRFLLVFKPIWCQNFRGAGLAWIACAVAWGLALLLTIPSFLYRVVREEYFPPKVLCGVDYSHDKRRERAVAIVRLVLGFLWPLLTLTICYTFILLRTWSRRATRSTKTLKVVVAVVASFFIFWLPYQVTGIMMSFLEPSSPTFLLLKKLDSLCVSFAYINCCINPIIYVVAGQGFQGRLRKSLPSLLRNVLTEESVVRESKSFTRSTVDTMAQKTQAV
Description: In vitro assay: antagonism of C5a-induced beta-arrestin recruitment (PathHunter) in CHO-K1 C5AR1 beta-arrestin cell line. It counts as cell-based. To be noted: antagonistic activity, 1-10 nM C5a agonist, geometric mean where several measurements, read-out: C5aR IC50. The method, then: 5 μl Antagonist at 6-fold end concentration or DMSO control is added to assay medium and subsequently 5 μl 1-10 nM C5a agonist at 6 fold end concentration. Cells are centrifuged for 1 min at 1000 rpm and incubated for 1.5 hour in at 37° C. Plates are equilibrated at room temperature for several minutes before adding 12 μl/well Detection Reagent (PathHunter Detection Kit, DiscoverX, Cat #93-0001). Plates are centrifuged for 1 min at 1000 rpm and incubated for 45 minutes at RT before being measured on a Fluostar Optima, BMG Labtech. IC50 values are calculated from a serial dilution range of antagonist using inhouse software and given in nmol/l.
The calculated IC50 values may fluctuate depending on the daily cellular assay performance. Fluctuations of this kind are known to those skilled in the art. Average IC50 values from several measurements are given as geometric mean values.
For orientation: Activated receptors often draw arrestin, which recruitment assays turn into a signal.
For orientation: IC50 means the concentration needed to halve the response being measured. In the case of `Cn1cc2c(n1)CN(C1CCN(c3c(F)cccc3C3CC3)CC1)C(=O)N2Cc1ccccc1C(F)(F)F` [Example 304], the IC50 worked out at 35 nM.

Take `Cc1cccc(F)c1N1CCC(N2Cc3cn(CCN(C)C)nc3N(Cc3ccccc3C(F)(F)F)C2=O)CC1` [Example 60]: the IC50 is 56 nM.

In the case of `Cc1nc2c(s1)N(Cc1ccccc1C(F)(F)F)C(=O)N(C1CCN(c3c(C)cccc3F)CC1)C2` [Example 90], the IC50 amounted to 153 nM.

On to `Cc1cccc(F)c1N1CCC(N2C(=O)N(Cc3ccccc3C(F)(F)F)c3cn(C)nc3C2C)CC1` (single isomer, unassigned) [Example 202], for which the IC50 is 919 nM.

Consider `Cc1cccc(F)c1N1CCC(N2Cc3cn(C4CCN(C(=O)OC(C)(C)C)C4)nc3N(Cc3ccccc3C(F)(F)F)C2=O)CC1` (centres unmarked) [Example 93], for which the IC50 was found to be 17 nM.

Take `Cc1cccc(F)c1N1CCC(N2C(=O)N(Cc3ncccc3C(F)(F)F)c3nn(C)cc3C2C)CC1` (single isomer, unassigned) [Example 355]: the IC50 was 298 nM.

`Cn1cc2c(n1)N(Cc1ccccc1C(F)(F)F)C(=O)N(C1CCN(c3c(F)cccc3C(F)(F)F)CC1)C2` [Example 243]: the IC50 was found to be 28 nM.

Take `Cc1cccc(F)c1N1CCC(N2Cc3cn(C(C)(NC(=O)OC(C)(C)C)C(F)(F)F)nc3N(Cc3ccccc3C(F)(F)F)C2=O)CC1` (centres unmarked) [Example 83]: the 50% inhibitory concentration (IC50) amounted to 75 nM.

For `Cc1cccc(F)c1N1CCC(N2Cc3cn(C(C)(C)C#N)nc3N(Cc3ccccc3C(F)(F)F)C2=O)CC1` [Example 87], the half-inhibitory concentration (IC50) came to 12 nM.

For the compound `Cc1cccc(F)c1N1CCC(N2Cc3cn(C(C)(C)CN)nc3N(Cc3ccccc3C(F)(F)F)C2=O)CC1` [Example 88], the IC50 was 156 nM.

Take `COc1nccc(C)c1N1CCC(N2C(=O)N(Cc3ccccc3C(F)(F)F)c3nn(C4CC4)cc3C2C)CC1` (single isomer, unassigned) [Example 345]: the 50% inhibitory concentration (IC50) was 35 nM.

As to `Cc1cccc(F)c1N1CCC(N2C(=O)N(Cc3ccccc3C(F)(F)F)c3nn(C)cc3C2C)CC1` (single isomer, unassigned) [Example 221], the IC50 was determined as 77 nM.

With `Cc1cccc(F)c1N1CCC(N2Cc3cn(C4CN(C(=O)OC(C)(C)C)C4)nc3N(Cc3ccccc3C(F)(F)F)C2=O)CC1` [Example 91], the half-maximal inhibitory concentration (IC50) turned out to be 26 nM.

With `COC(=O)C(Cl)Cn1cc2c(n1)N(Cc1ccccc1C(F)(F)F)C(=O)N(C1CCN(c3c(C)cccc3F)CC1)C2` (centres unmarked) [Example 42], the IC50 is 24 nM.

Regarding `Cc1cccc(F)c1N1CCC(N2Cc3cn(C(C)C(F)F)nc3N(Cc3ccccc3C(F)(F)F)C2=O)CC1` (single isomer, unassigned) [Example 188], the IC50 was 10 nM.

As to `COc1nccc(C)c1N1CCC(N2Cc3n[nH]cc3N(Cc3ccccc3C(F)(F)F)C2=O)CC1` [Example 218], the IC50 was 12 nM.

Take `CCOc1ccccc1CN1C(=O)N(C2CCN(c3c(C)cccc3F)CC2)Cc2cn(C)nc21` [Example 252]: the concentration for half-maximal inhibition (IC50) turned out to be 9 nM.

On to `Cc1cccc(F)c1N1CCC(N2Cc3cn(CC(C)(C)NS(=O)(=O)c4ccccc4[N+](=O)[O-])nc3N(Cc3ccccc3C(F)(F)F)C2=O)CC1` [Example 110], for which the IC50 was determined as 28 nM.

Consider `Cc1cccc(F)c1N1CCC(N2Cc3c(cnn3C3CC3)N(Cc3ncccc3C(F)(F)F)C2=O)CC1` [Example 215], for which the IC50 was determined as 146 nM.

Regarding `Cc1cccc(F)c1N1CCC(N2Cc3cn(C4CN(S(C)(=O)=O)C4)nc3N(Cc3ccccc3C(F)(F)F)C2=O)CC1` [Example 136], the IC50 turned out to be 163 nM.

Take `Cc1cccc(F)c1N1CCCC(N2Cc3cn(C)nc3N(Cc3ccccc3C(F)(F)F)C2=O)CC1` (single isomer, unassigned) [Example 226]: the IC50 is 24 nM.

Take `Cn1cc2c(n1)N(Cc1ccccc1C(F)(F)F)C(=O)N(C1CCN(c3ncccc3F)CC1)C2` [Example 68]: the IC50 is 318 nM.

On to `Cc1cccc(F)c1N1CCC(N2Cc3cnn(CC4CC4)c3N(Cc3ccccc3C(F)(F)F)C2=O)CC1` [Example 210], for which the IC50 worked out at 46 nM.

In the case of `CC(c1ccccc1C(F)(F)F)N1C(=O)N(C2CCN(c3c(F)cccc3C#N)CC2)Cc2cn(C)nc21` (single isomer, unassigned) [Example 288], the IC50 is 75 nM.

With `COC(=O)C(Cn1cc2c(n1)N(Cc1ccccc1C(F)(F)F)C(=O)N(C1CCN(c3c(C)cccc3F)CC1)C2)N(C)C` (centres unmarked) [Example 53], the IC50 is 46 nM.

`Cc1cccc(F)c1N1CCC(N2Cc3cn(C4CN(C(=O)N(C)C)C4)nc3N(Cc3ccccc3C(F)(F)F)C2=O)CC1` [Example 119]: the IC50 is 296 nM.

Turning to `CC(=O)NCCn1cc2c(n1)N(Cc1ccccc1C(F)(F)F)C(=O)N(C1CCN(c3c(C)cccc3F)CC1)C2` [Example 66], the half-inhibitory concentration (IC50) was found to be 152 nM.

As to `Cc1cccc(F)c1N1CCC(N2Cc3nn(CC4CC4)cc3N(Cc3ccccc3C(F)(F)F)C2=O)CC1` [Example 178], the half-inhibitory concentration (IC50) worked out at 16 nM.

In the case of `Cc1cccc(F)c1N1CCC(N2Cc3cn(C[C@H]4CCN4C(=O)OC(C)C)nc3N(Cc3ccccc3C(F)(F)F)C2=O)CC1` [Example 135], the IC50 was 17 nM.

Consider `CC1c2cn(C)nc2N(Cc2ccccc2C2CC2)C(=O)N1C1CCN(c2c(F)cccc2C2CC2)CC1` (single isomer, unassigned) [Example 326], for which the half-inhibitory concentration (IC50) was 355 nM.

For `COc1nccc(C)c1N1CCC(N2C(=O)N(Cc3ccccc3C(F)(F)F)c3nn(C)cc3C2C)CC1` (single isomer, unassigned) [Example 332], the IC50 is 184 nM.

In the case of `Cc1nc2c(o1)N(Cc1ccccc1C(F)(F)F)C(=O)N(C1CCN(c3c(C)cccc3F)CC1)C2` [Example 89], the IC50 worked out at 54 nM.

Regarding `Cc1cccc(F)c1N1CCC(N2Cc3cn(CC4CCCN4C(=O)OC(C)(C)C)nc3N(Cc3ccccc3C(F)(F)F)C2=O)CC1` (centres unmarked) [Example 97], the half-maximal inhibitory concentration (IC50) is 30 nM.

In the case of `COc1nccc(C)c1N1CCC(N2Cc3c[nH]nc3N(Cc3ccccc3C(F)(F)F)C2=O)CC1` [Example 197], the 50% inhibitory concentration (IC50) was 17 nM.

As to `Cc1cccc(F)c1N1CCC(N2Cc3cn(CC(C)C)nc3N(Cc3ccccc3C(F)(F)F)C2=O)CC1` [Example 155], the IC50 came to 25 nM.

For the compound `COc1ccnc(OC)c1N1CCC(N2Cc3cn(C)nc3N(Cc3ccccc3C(F)(F)F)C2=O)CC1` [Example 95], the IC50 came out at 125 nM.

Regarding `COC(=O)C(C)(C)n1cc2c(n1)N(Cc1ccccc1C(F)(F)F)C(=O)N(C1CCN(c3c(C)cccc3F)CC1)C2` [Example 27], the IC50 is 17 nM.

In the case of `Cc1cccc(F)c1N1CCC(N2Cc3cn(C(C)CN)nc3N(Cc3ccccc3C(F)(F)F)C2=O)CC1` (centres unmarked) [Example 79], the half-maximal inhibitory concentration (IC50) came to 676 nM.

As to `COc1nccc(C(F)F)c1N1CCC(N2C(=O)N(Cc3ccccc3C(F)(F)F)c3nn(C)cc3C2C)CC1` (single isomer, unassigned) [Example 346], the IC50 was 7 nM.

As for `Cc1cccc(F)c1N1CCC(N2Cc3nn(CC4(F)CC4)cc3N(Cc3ncccc3C(F)(F)F)C2=O)CC1` [Example 208], the concentration for half-maximal inhibition (IC50) is 3 nM.

With `Cc1cccc(F)c1N1CCC(N2Cc3cn(CC4(O)COC4)nc3N(Cc3ccccc3C(F)(F)F)C2=O)CC1` [Example 171], the IC50 was 17 nM.

Consider `Cc1cccc(F)c1N1CCC(N2C(=O)N(Cc3ccccc3C(F)(F)F)c3cnn(CC(C)(F)F)c3C2C)CC1` (single isomer, unassigned) [Example 256], for which the half-maximal inhibitory concentration (IC50) worked out at 570 nM.

Regarding `CC1c2nn(C3CC3)cc2N(Cc2ccccc2C(F)(F)F)C(=O)N1C1CCN(c2c(F)cccc2Cl)CC1` (single isomer, unassigned) [Example 328], the IC50 came to 10 nM.

With `CCOC(=O)N1CC(n2cc3c(n2)N(Cc2ccccc2C(F)(F)F)C(=O)N(C2CCN(c4c(C)cccc4F)CC2)C3)C1` [Example 126], the IC50 was 15 nM.

`Cc1cccc(F)c1N1CCC(N2Cc3cn(CC(C)C#N)nc3N(Cc3ccccc3C(F)(F)F)C2=O)CC1` (centres unmarked) [Example 43]: the half-maximal inhibitory concentration (IC50) stood at 18 nM.

In the case of `Cc1cccc(F)c1N1CC(N2Cc3cn(C)nc3N(Cc3ccccc3C(F)(F)F)C2=O)C1` [Example 264], the 50% inhibitory concentration (IC50) worked out at 216 nM.

Regarding `Cn1cc2c(n1)N(Cc1ccccc1C1CC1)C(=O)N(C1CCN(c3c(F)cccc3Cl)CC1)C2` [Example 284], the IC50 is 9 nM.

`Cc1cccc(F)c1N1CCC(C)(N2Cc3cn(C)nc3N(Cc3ccccc3C(F)(F)F)C2=O)C1` (single isomer, unassigned) [Example 234]: the concentration for half-maximal inhibition (IC50) came to 109 nM.

As for `Cc1cccc(C)c1N1CCC(N2Cc3cn(C)nc3N(Cc3ccccc3C(F)(F)F)C2=O)CC1` [Example 47], the IC50 turned out to be 19 nM.

`Cc1cccc(F)c1N1CCC(N2Cc3cn(CCN4CCOCC4)nc3N(Cc3ccccc3C(F)(F)F)C2=O)CC1` [Example 64]: the 50% inhibitory concentration (IC50) was determined as 21 nM.

On to `Cc1cccc(F)c1N1CCC(N2Cc3cn(C(=O)OC(C)C)nc3N(Cc3ccccc3C(F)(F)F)C2=O)CC1` [Example 147], for which the half-maximal inhibitory concentration (IC50) turned out to be 152 nM.

For `Cc1cccc(F)c1N1CCC(N2Cc3n[nH]cc3N(Cc3ncccc3C(F)(F)F)C2=O)CC1` [Example 204], the concentration for half-maximal inhibition (IC50) is 23 nM.

Regarding `Cc1cccc(F)c1N1CCC(N2Cc3cn(C)nc3N(C(C)c3ccccc3C(F)(F)F)C2=O)CC1` (single isomer, unassigned) [Example 247], the IC50 is 21 nM.

Values taken from patent US11608341B2, “Substituted tetrahydropyrazolo[3,4-d]pyrimidines and tetrahydropyrazolo[4,3-d]pyrimidines as C5A receptor modulators” (Idorsia Pharmaceuticals Ltd., priority 2018, dated 2023).
